Assay results reported in BindingDB's records for doi:10.1021/acs.jmedchem.9b01169 (Boehringer Ingelheim Rcv, 2019).

Assay: Inhibition of wild type EGFR in mouse BAF3 cells assessed as reduction in cell proliferation incubated for 72 hrs by Celltiter-Glo luminescent cell viability assay

Point of comparison: Cc1cc2cc(n1)-c1cnn(C)c1OCCC[C@@H](C)CN1/C(=N/C2=O)Nc2ccccc21, IC50 1.1 µM. Against it:
- Cc1cc2cc(n1)-c1cnn(C)c1OCCCCCN1/C(=N/C2=O)Nc2ccccc21 — 2.1-fold higher, 2.3 µM
- Cn1ncc2c1OCCCCCN1/C(=N/C(=O)c3cc(F)nc-2c3)Nc2ccccc21 — 4.1-fold lower, 0.27 µM
- COc1ccncc1-c1cc(C(=O)/N=c2\[nH]c3ccccc3n2CC(C)(C)O)ccn1 — 1.6-fold lower, 0.7 µM
- CC(C)(O)Cn1/c(=N/C(=O)c2ccnc(-c3ccccc3)c2)[nH]c2ccccc21 — higher, > 10 µM
- O=C1/N=C2\Nc3ccccc3N2CCCCCOc2ccccc2-c2cc1ccn2 — within 1.5-fold, 1.3 µM
- Cn1cc(-c2cc(C(=O)/N=c3\[nH]c4ccccc4n3CC(C)(C)O)ccn2)cn1 — 4.6-fold higher, 5.1 µM
